In PMC7315583, “Structure and Dynamics of a Thermostable Alcohol Dehydrogenase from the Antarctic Psychrophile Moraxella sp. TAE123” (ACS Omega, 2020):

Molecular target: MoADH (His-tagged alcohol dehydrogenase from Moraxella sp. TAE123) (Moraxella sp. TAE123, UniProt Q8GIX7)
Set-up: gene adh
Settings: turnover, fixed 35 mM ethanol, NAD+ varied 0-4.0 mM; pH 7.4; 10-53 °C

Chain of MoADH (His-tagged alcohol dehydrogenase from Moraxella sp. TAE123) (Q8GIX7 whole entry): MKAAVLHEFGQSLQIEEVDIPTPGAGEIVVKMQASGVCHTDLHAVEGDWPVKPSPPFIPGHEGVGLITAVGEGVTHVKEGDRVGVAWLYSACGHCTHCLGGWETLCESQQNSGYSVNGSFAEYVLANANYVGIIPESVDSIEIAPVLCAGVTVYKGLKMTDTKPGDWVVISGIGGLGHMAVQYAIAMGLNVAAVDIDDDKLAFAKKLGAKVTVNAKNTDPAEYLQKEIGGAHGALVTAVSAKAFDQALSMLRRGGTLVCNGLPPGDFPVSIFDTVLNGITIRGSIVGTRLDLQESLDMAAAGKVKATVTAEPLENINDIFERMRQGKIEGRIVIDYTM

In the case of `CCO` [ethanol], the “NADH absorbance at 340 nm, microplate reader” value is reported as “Ethanol oxidation reaction rates have been measured as a function of temperature”.
